Laboratory results taken from patent publication US20240150377A1, “MODULATORS OF CYSTIC FIBROSIS TRANSMEMBRANE CONDUCTANCE REGULATOR” (VERTEX PHARMACEUTICALS INCORPORATED, priority 2020, published 2024).
Like-named read-outs stand apart in the source and are kept apart here.

Biological target: T1, CFTR (Homo sapiens, UniProt P13569, DEL508-508)
T1 construct: endogenous in cells; host or cells: primary human bronchial epithelial cells from CF subjects (F508del/MF-HBE), differentiated at air-liquid interface
Experiment: HBE assay: Ussing chamber assay of CFTR-mediated short-circuit currents
Type: cell-based
Details: for EC50: read-out: HBE EC50; for activation at 10 µM: read-out: HBE Activity at 10 μM (%)
Summary of the method: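 CFTR-mediated Isc (μA/cm²) equals the peak response to apical 20 μM forskolin minus the residual after a 20 μM each BPO/GlyH-101/CFTR inhibitor 172 cocktail, recorded in Ussing chambers at Vhold 0 mV, 37 °C, pH 7.4, with 30 μM apical amiloride. Cells were F508del/MF HBE cultures preincubated 18-24 h with corrector (concentration range or 10 μM) plus 1 μM ivacaftor in 20% human serum.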

[1] = Table 13, read-out: HBE Max Activity (%)
[2] = HBE assay, read-out: HBE Max activity (%)

T1 sequence (P13569 with tags, fused parts or gaps DEL508-508): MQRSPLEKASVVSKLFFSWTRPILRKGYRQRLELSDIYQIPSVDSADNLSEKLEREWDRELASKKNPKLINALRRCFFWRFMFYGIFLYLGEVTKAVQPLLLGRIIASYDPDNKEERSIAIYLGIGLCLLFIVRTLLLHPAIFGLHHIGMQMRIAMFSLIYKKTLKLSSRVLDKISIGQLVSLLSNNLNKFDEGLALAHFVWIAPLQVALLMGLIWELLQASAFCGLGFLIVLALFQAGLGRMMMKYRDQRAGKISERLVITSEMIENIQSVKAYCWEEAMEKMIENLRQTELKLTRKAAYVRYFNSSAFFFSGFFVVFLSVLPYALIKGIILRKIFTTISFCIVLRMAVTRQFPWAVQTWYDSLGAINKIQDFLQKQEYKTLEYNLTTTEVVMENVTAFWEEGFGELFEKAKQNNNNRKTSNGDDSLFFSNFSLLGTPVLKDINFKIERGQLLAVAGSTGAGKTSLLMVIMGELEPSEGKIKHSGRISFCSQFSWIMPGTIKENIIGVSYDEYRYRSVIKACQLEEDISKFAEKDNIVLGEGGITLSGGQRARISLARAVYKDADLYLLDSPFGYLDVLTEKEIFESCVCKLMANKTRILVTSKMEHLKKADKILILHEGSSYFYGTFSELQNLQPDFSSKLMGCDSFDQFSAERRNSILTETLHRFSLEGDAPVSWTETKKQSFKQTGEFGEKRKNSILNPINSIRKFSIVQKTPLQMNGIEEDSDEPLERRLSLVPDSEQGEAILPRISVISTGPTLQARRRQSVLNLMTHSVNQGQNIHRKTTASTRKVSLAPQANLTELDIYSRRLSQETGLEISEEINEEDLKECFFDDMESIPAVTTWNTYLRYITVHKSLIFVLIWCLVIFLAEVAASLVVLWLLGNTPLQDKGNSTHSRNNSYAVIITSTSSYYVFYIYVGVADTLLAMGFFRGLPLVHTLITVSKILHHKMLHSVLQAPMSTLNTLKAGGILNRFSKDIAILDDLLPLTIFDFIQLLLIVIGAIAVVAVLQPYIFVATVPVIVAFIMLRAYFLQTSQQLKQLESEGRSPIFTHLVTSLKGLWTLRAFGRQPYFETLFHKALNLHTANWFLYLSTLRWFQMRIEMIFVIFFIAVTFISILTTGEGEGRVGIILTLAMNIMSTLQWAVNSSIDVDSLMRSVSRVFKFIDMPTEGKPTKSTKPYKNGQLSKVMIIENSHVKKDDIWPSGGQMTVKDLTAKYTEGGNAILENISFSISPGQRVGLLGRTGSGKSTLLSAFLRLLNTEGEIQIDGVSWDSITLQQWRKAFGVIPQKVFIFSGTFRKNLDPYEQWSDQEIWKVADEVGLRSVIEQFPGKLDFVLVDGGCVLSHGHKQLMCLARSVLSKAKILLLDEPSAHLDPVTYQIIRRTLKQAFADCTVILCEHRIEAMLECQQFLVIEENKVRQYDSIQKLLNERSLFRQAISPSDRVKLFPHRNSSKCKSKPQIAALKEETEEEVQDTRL

Cc1cccc(C)c1-c1cc2nc(n1)NS(=O)(=O)c1cccc(n1)C(=O)N(Cc1cccc(N3CCCC3C)n1)[C@H](CC(C)(C)C)CO2 (some centres unmarked) [Compound 1127]
EC50 (Table 13): < 1000 nM
Emax [1]: > 60%

Cc1cccc(C)c1-c1cc2nc(n1)NS(=O)(=O)c1cccc(n1)C(=O)N(Cc1ncc(OC(C)C)cn1)[C@H](CC(C)(C)C)CO2 [Compound 1128]
EC50 (Table 13): < 1000 nM
Emax [1]: > 60%

Cc1cccc(C)c1-c1cc2nc(n1)NS(=O)(=O)c1cccc(c1)C(=O)N(Cc1ncc(OC3CC3)cn1)[C@H](CC(C)(C)C)CO2 [Compound 1129]
EC50 (Table 13): < 1000 nM
Emax [1]: > 60%

Cc1cccc(C)c1-c1cc2nc(n1)NS(=O)(=O)c1cccc(c1)C(=O)N(Cc1nc(C3CCC3)no1)[C@H](CC(C)(C)C)CO2 [Compound 1130]
activation at 10 µM (Table 13, at 10 μM): > 600%

Cc1cccc(C)c1-c1cc2nc(n1)NS(=O)(=O)c1cccc(c1)C(=O)N(Cc1nc(C(C)(C)C)no1)[C@H](CC(C)(C)C)CO2 [Compound 1131]
activation at 10 µM (Table 13, at 10 μM): > 600%

Cc1cccc(C)c1-c1cc2nc(n1)NS(=O)(=O)c1cccc(c1)C(=O)N(Cc1nccc(NC(C)C)c1F)[C@H](CC(C)(C)C)CO2 [Compound 1132]
EC50 (Table 13): < 1000 nM
Emax [1]: > 60%

Cc1cc(N2CCC(C)(C)C2)cnc1CN1C(=O)c2cccc(c2)S(=O)(=O)Nc2nc(cc(-c3c(C)cccc3C)n2)OC[C@H]1CC(C)(C)C [Compound 1135]
EC50 (Table 13): < 1000 nM
Emax [1]: > 60%

COCCCN(c1cccc(CN2C(=O)c3cccc(c3)S(=O)(=O)Nc3nc(cc(-c4c(C)cccc4C)n3)OC[C@H]2CC(C)(C)C)n1)C(C)C [Compound 1136]
EC50 (Table 13): < 1000 nM
Emax [1]: > 60%

CCCCN(c1cccc(CN2C(=O)c3cccc(c3)S(=O)(=O)Nc3nc(cc(-c4c(C)cccc4C)n3)OC[C@H]2CC(C)(C)C)n1)C(C)C [Compound 1137]
EC50 (Table 13): < 1000 nM
Emax [1]: > 60%

Cc1cccc(C)c1-c1cc2nc(n1)NS(=O)(=O)c1cccc(c1)C(=O)N(Cc1cccc(C(=O)N3CCC(C)(C)C3)n1)[C@H](CC(C)(C)C)CO2 [Compound 1138]
EC50 (Table 13): < 1000 nM
Emax [1]: > 60%

Cc1cccc(C)c1-c1cc2nc(n1)NS(=O)(=O)c1cccc(c1)C(=O)N(Cc1ncc(N3CCC(C)(C)CC3)cc1C(F)(F)F)[C@H](CC(C)(C)C)CO2 [Compound 1139]
EC50 (Table 13): 1000 to 3000 nM
Emax [1]: > 60%

Cc1ccc(N(C)C2CC3(CC3)C2)nc1CN1C(=O)c2cccc(c2)S(=O)(=O)Nc2nc(cc(-c3c(C)cccc3C)n2)OC[C@H]1CC(C)(C)C [Compound 1140]
EC50 (Table 13): < 1000 nM
Emax [1]: > 60%

Cc1cccc(C)c1-c1cc2nc(n1)NS(=O)(=O)c1cccc(n1)C(=O)N(Cc1ncc(N3CCC(C)(C)C3=O)cn1)[C@H](CC(C)(C)C)CO2 [Compound 1141]
EC50 (Table 13): < 1000 nM
Emax [1]: > 60%

COCCN(c1cccc(CN2C(=O)c3cccc(n3)S(=O)(=O)Nc3nc(cc(-c4c(C)cccc4C)n3)OC[C@H]2CC(C)(C)C)n1)C(C)C [Compound 1142]
EC50 (Table 13): 1000 to 3000 nM
Emax [1]: > 60%

Cc1cccc(C)c1-c1cc2nc(n1)NS(=O)(=O)c1cccc(n1)C(=O)N(Cc1cccc(N(C)C3CC4(CC4)C3)n1)[C@H](CC(C)(C)C)CO2 [Compound 1143]
EC50 (Table 13): < 1000 nM
Emax [1]: > 60%

Cc1cccc(C)c1-c1cc2nc(n1)NS(=O)(=O)c1cccc(n1)C(=O)N(Cc1cccc(NCC(C)(C)C)n1)[C@H](CC(C)(C)C)CO2 [Compound 1144]
EC50 (Table 13): < 1000 nM
Emax [1]: > 60%

Cc1cccc(C)c1-c1cc2nc(n1)NS(=O)(=O)c1cccc(c1)C(=O)N(Cc1ncc(N3CC(C)(C)OC(C)(C)C3)cn1)[C@H](CC(C)(C)C)CO2 [Compound 1145]
EC50 (Table 13): < 1000 nM
Emax [1]: > 60%

Cc1cccc(C)c1-c1cc2nc(n1)NS(=O)(=O)c1cccc(c1)C(=O)N(Cc1ncc(N3CCOC4(CCC4)C3)cn1)[C@H](CC(C)(C)C)CO2 [Compound 1146]
EC50 (Table 13): < 1000 nM
Emax [1]: > 60%

Cc1cccc(C)c1-c1cc2nc(n1)NS(=O)(=O)c1cccc(c1)C(=O)N(Cc1ncc(N3CCSCC3)cn1)[C@H](CC(C)(C)C)CO2 [Compound 1147]
EC50 (Table 13): < 1000 nM
Emax [1]: > 60%

Cc1cccc(C)c1-c1cc2nc(n1)NS(=O)(=O)c1cccc(c1)C(=O)N(Cc1ncc(N3CCOC4(CC4)C3)cn1)[C@H](CC(C)(C)C)CO2 [Compound 1148]
EC50 (Table 13): < 1000 nM
Emax [1]: > 60%

Cc1cccc(C)c1-c1cc2nc(n1)NS(=O)(=O)c1cccc(c1)C(=O)N(Cc1ccc([C@@H](O)CO)cn1)[C@H](CC(C)(C)C)CO2 [Compound 1150]
EC50 (Table 13): < 1000 nM

Cc1cccc(C)c1-c1cc2nc(n1)NS(=O)(=O)c1cccc(c1)C(=O)N(Cc1ccc([C@@H](O)CO)cn1)[C@H](CC(C)(C)C)CO2 [Compound 1151]
EC50 (Table 13): 1000 to 3000 nM
Emax [1]: > 60%

Cc1cccc(C)c1-c1cc2nc(n1)NS(=O)(=O)c1cccc(c1)C(=O)N(Cc1ncc([C@@H](O)CO)cn1)[C@H](CC(C)(C)C)CO2 [Compound 1152]
EC50 (Table 13): < 1000 nM

Cc1cccc(C)c1-c1cc2nc(n1)NS(=O)(=O)c1cccc(c1)C(=O)N(Cc1ncc([C@@H](O)CO)cn1)[C@H](CC(C)(C)C)CO2 [Compound 1153]
EC50 (Table 13): 1000 to 3000 nM
Emax [1]: > 60%

Cc1cccc(C)c1-c1cc2nc(n1)NS(=O)(=O)c1cccc(c1)C(=O)N(Cc1ccc3c(n1)N1CCOCC1C(C)C3)[C@H](CC(C)(C)C)CO2 (some centres unmarked) [Compound 1154]
EC50 (Table 13): < 1000 nM
Emax [1]: > 60%

Cc1cccc(C)c1-c1cc2nc(n1)NS(=O)(=O)c1cccc(c1)C(=O)N(Cc1nccc(N(C)CC(C)(C)C)c1F)[C@H](CC(C)(C)C)CO2 [Compound 1155]
EC50 (Table 13): 1000 to 3000 nM
Emax [1]: > 60%

Cc1cccc(C)c1-c1cc2nc(n1)NS(=O)(=O)c1cccc(c1)C(=O)N(Cc1ncc(N3CCOC(C)(C)C3)cn1)[C@H](CC(C)(C)C)CO2 [Compound 1156]
EC50 (Table 13): < 1000 nM
Emax [1]: > 60%

Cc1cccc(C)c1-c1cc2nc(n1)NS(=O)(=O)c1cccc(c1)C(=O)N(Cc1ncc(OC3CCC3)cc1F)[C@H](CC(C)(C)C)CO2 [Compound 1299, (11R)-12-[[5-(Cyclobutoxy)-3-fluoro-2-pyridyl]methyl]-6-(2,6-dimethylphenyl)-11-(2,2-dimethylpropyl)-2,2-dioxo-9-oxa-2λ^6-thia-3,5,12,19-tetrazatricyclo[12.3.1.14,8]nonadeca-1(18),4(19),5,7,14,16-hexaen-13-one]
EC50 (HBE assay): < 1000 nM
Emax [2]: > 60%

Cc1cccc(C)c1-c1cc2nc(n1)NS(=O)(=O)c1cccc(c1)C(=O)N(Cc1nc(N(C)C3CC4(CC4)C3)ccc1F)[C@H](CC(C)(C)C)CO2 [Compound 1300, (11R)-6-(2,6-Dimethylphenyl)-11-(2,2-dimethylpropyl)-12-[[3-fluoro-6-[methyl(spiro[2.3]hexan-5-yl)amino]-2-pyridyl]methyl]-2,2-dioxo-9-oxa-2λ^6-thia-3,5,12,19-tetrazatricyclo[12.3.1.14,8]nonadeca-1(18),4(19),5,7,14,16-hexaen-13-one]
EC50 (HBE assay): < 1000 nM
Emax [2]: > 60%

Cc1cccc(C)c1-c1cc2nc(n1)NS(=O)(=O)c1cccc(c1)C(=O)N(Cc1ncc(O[C@@H](C)C(C)C)cn1)[C@H](CC(C)(C)C)CO2 [Compound 1301, (11R)-6-(2,6-Dimethylphenyl)-12-[[5-[(1S)-1,2-dimethylpropoxy]pyrimidin-2-yl]methyl]-11-(2,2-dimethylpropyl)-2,2-dioxo-9-oxa-2λ^6-thia-3,5,12,19-tetrazatricyclo[12.3.1.14,8]nonadeca-1(18),4(19),5,7,14,16-hexaen-13-one]
EC50 (HBE assay): < 1000 nM
Emax [2]: > 60%

Cc1cccc(C)c1-c1cc2nc(n1)NS(=O)(=O)c1cccc(c1)C(=O)N(Cc1ccc3c(C4CC4)cn(C)c3n1)[C@H](CC(C)(C)C)CO2 [Compound 1303, (11R)-12-[(3-Cyclopropyl-1-methyl-pyrrolo[2,3-b]pyridin-6-yl)methyl]-6-(2,6-dimethylphenyl)-11-(2,2-dimethylpropyl)-2,2-dioxo-9-oxa-2λ^6-thia-3,5,12,19-tetrazatricyclo[12.3.1.14,8]nonadeca-1(18),4(19),5,7,14,16-hexaen-13-one]
activation at 10 µM (HBE assay, 10 μM): > 60%

Cc1cccc(C)c1-c1cc2nc(n1)NS(=O)(=O)c1cccc(c1)C(=O)N(Cc1ncc(OC(C)C)cn1)[C@H](CC(C)(C)F)CO2 [Compound 1308, (11R)-6-(2,6-Dimethylphenyl)-11-(2-fluoro-2-methyl-propyl)-12-[(5-isopropoxypyrimidin-2-yl)methyl]-2,2-dioxo-9-oxa-2λ^6-thia-3,5,12,19-tetrazatricyclo[12.3.1.14,8]nonadeca-1(18),4(19),5,7,14,16-hexaen-13-one]
activation at 10 µM (HBE assay, 10 μM): > 60%

Cc1cccc(C)c1-c1cc2nc(n1)NS(=O)(=O)c1cccc(c1)C(=O)N(Cc1ncc(N3CC(C)(C)C3)cn1)[C@H](CCC(C)C)CO2 [Compound 1309, (11R)-12-[[5-(3,3-Dimethylazetidin-1-yl)pyrimidin-2-yl]methyl]-6-(2,6-dimethylphenyl)-11-isopentyl-2,2-dioxo-9-oxa-2λ^6-thia-3,5,12,19-tetrazatricyclo[12.3.1.14,8]nonadeca-1(18),4(19),5,7,14,16-hexaen-13-one]
activation at 10 µM (HBE assay, 10 μM): > 60%

COCCN(c1ccc(C)c(CN2C(=O)c3cccc(c3)S(=O)(=O)Nc3nc(cc(-c4c(C)cccc4C)n3)OC[C@H]2CC(C)(C)C)n1)C(C)C [Compound 1343]
EC50 (HBE assay): < 1000 nM
Emax [2]: > 60%

COCC(C)Oc1cnc(CN2C(=O)c3cccc(c3)S(=O)(=O)Nc3nc(cc(-c4c(C)cccc4C)n3)OC[C@H]2CC(C)(C)C)nc1 (some centres unmarked) [Compound 1344]
EC50 (HBE assay): < 1000 nM
Emax [2]: > 60%

CCC(C)Oc1cnc(CN2C(=O)c3cccc(c3)S(=O)(=O)Nc3nc(cc(-c4c(C)cccc4C)n3)OC[C@H]2CC(C)(C)C)nc1 (some centres unmarked) [Compound 1345]
EC50 (HBE assay): < 1000 nM
Emax [2]: > 60%
